{"source": "paper PMC5218480", "about": "(PLoS ONE, 2017)", "tested_on": "MV-4-11 cells", "test": "Gene expression microarray analysis (Affymetrix PrimeView) and GSEA", "assay_type": "cell-based, human", "parameters": "RFU PODN (11730768_x_at) / Fold change /veh PODN (11730768_x_at) / RFU LINC00158 (11744669_a_at) / Fold change /veh LINC00158 (11744669_a_at) / RFU DUSP10 (11751237_a_at) / Fold change /veh DUSP10 (11751237_a_at) / RFU ID3 (11757404_x_at) / Fold change /veh ID3 (11757404_x_at) / RFU PLEKHG5 (11737974_s_at) / Fold change /veh PLEKHG5 (11737974_s_at) / RFU LRRC4B (11730491_at) / Fold change /veh LRRC4B (11730491_at) / RFU GIMAP4 (11747438_a_at) / Fold change /veh GIMAP4 (11747438_a_at) / RFU KRT8 (11758183_x_at) / Fold change /veh KRT8 (11758183_x_at) / RFU CNN1 (11734310_a_at) / Fold change /veh CNN1 (11734310_a_at) / RFU VPS37D (11726825_at) / Fold change /veh VPS37D (11726825_at) / RFU C10orf10 (11716522_x_at) / Fold change /veh C10orf10 (11716522_x_at) / RFU KIR2DL2 /// KIR2DL4 /// KIR2DL5A /// KIR2DL5B /// KIR2DS1 /// KIR2DS2 /// KIR2DS3 /// KIR2DS4 /// KIR3DL3 /// KIR3DL3 /// KIR3DS1 (11738374_at) / Fold change /veh KIR2DL2 /// KIR2DL4 /// KIR2DL5A /// KIR2DL5B /// KIR2DS1 /// KIR2DS2 /// KIR2DS3 /// KIR2DS4 /// KIR3DL3 /// KIR3DL3 /// KIR3DS1 (11738374_at) / RFU C1QL1 (11718748_at) / Fold change /veh C1QL1 (11718748_at) / RFU TMPRSS4 (11747572_a_at) / Fold change /veh TMPRSS4 (11747572_a_at) / RFU HAMP (11756126_x_at) / Fold change /veh HAMP (11756126_x_at) / RFU RNFT2 (11725882_a_at) / Fold change /veh RNFT2 (11725882_a_at) / RFU NR4A2 (11747474_a_at) / Fold change /veh NR4A2 (11747474_a_at) / RFU ABCC12 (11746883_a_at) / Fold change /veh ABCC12 (11746883_a_at) / RFU TMEM136 (11760407_x_at) / Fold change /veh TMEM136 (11760407_x_at) / RFU CLDN22 /// WWC2 (11732394_at) / Fold change /veh CLDN22 /// WWC2 (11732394_at) / RFU HLA-DPB1 (11760878_x_at) / Fold change /veh HLA-DPB1 (11760878_x_at) / RFU SPINT1 (11716480_a_at) / Fold change /veh SPINT1 (11716480_a_at) / RFU GAP43 (11754022_s_at) / Fold change /veh GAP43 (11754022_s_at) / RFU A4GNT (11735810_at) / Fold change /veh A4GNT (11735810_at) / RFU PRB3 (11715151_x_at) / Fold change /veh PRB3 (11715151_x_at) / RFU TUBB4B (11761932_at) / Fold change /veh TUBB4B (11761932_at) / RFU CAPN14 (11732068_a_at) / Fold change /veh CAPN14 (11732068_a_at) / RFU TMCC2 (11721928_a_at) / Fold change /veh TMCC2 (11721928_a_at) / RFU IRGQ (11745062_a_at) / Fold change /veh IRGQ (11745062_a_at) / RFU FAM174B (11720279_a_at) / Fold change /veh FAM174B (11720279_a_at) / RFU TMPRSS4 (11748680_a_at) / Fold change /veh TMPRSS4 (11748680_a_at) / RFU FAM212B (11763350_a_at) / Fold change /veh FAM212B (11763350_a_at) / RFU PLEKHG5 (11743358_a_at) / Fold change /veh PLEKHG5 (11743358_a_at) / RFU ZSCAN30 (11745921_a_at) / Fold change /veh ZSCAN30 (11745921_a_at) / RFU CMKLR1 (11741424_a_at) / Fold change /veh CMKLR1 (11741424_a_at) / RFU LOC101060620 /// MAPK8IP1 (11723275_at) / Fold change /veh LOC101060620 /// MAPK8IP1 (11723275_at) / RFU SPTSSB (11747773_x_at) / Fold change /veh SPTSSB (11747773_x_at) / RFU PRSS12 (11739890_at) / Fold change /veh PRSS12 (11739890_at) / RFU BIN1 (11741810_x_at) / Fold change /veh BIN1 (11741810_x_at) / RFU WNT11 (11732464_a_at) / Fold change /veh WNT11 (11732464_a_at) / RFU C10orf10 (11716521_a_at) / Fold change /veh C10orf10 (11716521_a_at) / RFU C5orf56 (11738089_at) / Fold change /veh C5orf56 (11738089_at) / RFU CYB561 (11721691_x_at) / Fold change /veh CYB561 (11721691_x_at) / RFU ANKRD19P (11752326_a_at) / Fold change /veh ANKRD19P (11752326_a_at) / RFU OR2T12 /// OR2T33 /// OR2T8 (11738714_s_at) / Fold change /veh OR2T12 /// OR2T33 /// OR2T8 (11738714_s_at) / RFU VCAN (11748164_a_at) / Fold change /veh VCAN (11748164_a_at) / RFU JSRP1 (11732532_at) / Fold change /veh JSRP1 (11732532_at) / RFU KRTAP10-11 (11738290_x_at) / Fold change /veh KRTAP10-11 (11738290_x_at) / RFU MYO3A (11730013_a_at) / Fold change /veh MYO3A (11730013_a_at) / RFU EBF3 (11725865_a_at) / Fold change /veh EBF3 (11725865_a_at) / RFU CAMK2N1 (11719241_x_at) / Fold change /veh CAMK2N1 (11719241_x_at) / RFU C5orf56 (11738088_a_at) / Fold change /veh C5orf56 (11738088_a_at) / RFU OLFML3 (11715873_a_at) / Fold change /veh OLFML3 (11715873_a_at) / RFU LOC100653217 /// NTM (11731650_a_at) / Fold change /veh LOC100653217 /// NTM (11731650_a_at) / RFU MAPK11 (11762145_a_at) / Fold change /veh MAPK11 (11762145_a_at) / RFU FIZ1 (11724087_x_at) / Fold change /veh FIZ1 (11724087_x_at) / RFU OASL (11726364_x_at) / Fold change /veh OASL (11726364_x_at) / RFU SOX15 (11748057_x_at) / Fold change /veh SOX15 (11748057_x_at) / RFU CD79A (11719716_a_at) / Fold change /veh CD79A (11719716_a_at) / RFU HIST1H1D (11736915_at) / Fold change /veh HIST1H1D (11736915_at) / RFU CASKIN2 (11723855_a_at) / Fold change /veh CASKIN2 (11723855_a_at) / RFU LOC730098 (11760151_x_at) / Fold change /veh LOC730098 (11760151_x_at) / RFU OR4N2 (11742367_at) / Fold change /veh OR4N2 (11742367_at) / RFU PRRT2 (11749266_a_at) / Fold change /veh PRRT2 (11749266_a_at) / RFU SNX32 (11753110_a_at) / Fold change /veh SNX32 (11753110_a_at) / RFU CDHR5 (11726645_a_at) / Fold change /veh CDHR5 (11726645_a_at) / RFU RCAN1 (11760418_a_at) / Fold change /veh RCAN1 (11760418_a_at) / RFU FAM167A (11723789_a_at) / Fold change /veh FAM167A (11723789_a_at) / RFU FAM26E (11764081_at) / Fold change /veh FAM26E (11764081_at) / RFU ISYNA1 (11749810_s_at) / Fold change /veh ISYNA1 (11749810_s_at) / RFU ACY1 (11761880_at) / Fold change /veh ACY1 (11761880_at) / RFU 11764098_at / Fold change /veh 11764098_at / RFU SAMD14 (11745864_x_at) / Fold change /veh SAMD14 (11745864_x_at) / RFU NPB (11741838_a_at) / Fold change /veh NPB (11741838_a_at) / RFU TMPRSS6 (11731388_a_at) / Fold change /veh TMPRSS6 (11731388_a_at) / RFU KRTAP10-2 (11738614_at) / Fold change /veh KRTAP10-2 (11738614_at) / RFU ARHGAP8 /// PRR5-ARHGAP8 (11727945_x_at) / Fold change /veh ARHGAP8 /// PRR5-ARHGAP8 (11727945_x_at) / RFU KRTAP5-7 /// NADSYN1 (11734609_at) / Fold change /veh KRTAP5-7 /// NADSYN1 (11734609_at) / RFU RASL12 (11751679_a_at) / Fold change /veh RASL12 (11751679_a_at) / RFU CDKN2B (11736163_a_at) / Fold change /veh CDKN2B (11736163_a_at) / RFU PRF1 (11729649_at) / Fold change /veh PRF1 (11729649_at) / RFU, ZNF638 /// ZNF638-IT1 / Fold change vs veh, ZNF638 /// ZNF638-IT1 / RFU, PANK3 / Fold change vs veh, PANK3 / RFU, SH3YL1 / Fold change vs veh, SH3YL1 / RFU, ZEB2 / Fold change vs veh, ZEB2 / RFU, NRIP1 / Fold change vs veh, NRIP1 / RFU, PTTG1IP / Fold change vs veh, PTTG1IP / RFU, CAPN2 / Fold change vs veh, CAPN2 / RFU, MED14 / Fold change vs veh, MED14 / RFU, SNORA58 / Fold change vs veh, SNORA58 / RFU, C1orf63 / Fold change vs veh, C1orf63 / RFU, LRRFIP1 / Fold change vs veh, LRRFIP1 / RFU, NDUFAF7 / Fold change vs veh, NDUFAF7 / RFU, SLC12A2 / Fold change vs veh, SLC12A2 / RFU, IBTK / Fold change vs veh, IBTK / RFU, ESF1 / Fold change vs veh, ESF1 / Fold change vs veh, TMEM50B / RFU, TAOK1 / Fold change vs veh, TAOK1 / RFU, ACBD3 / Fold change vs veh, ACBD3 / RFU, TMA16 / Fold change vs veh, TMA16 / RFU, RWDD3 / Fold change vs veh, RWDD3 / RFU, BCAT1 / Fold change vs veh, BCAT1 / RFU, EDEM3 / Fold change vs veh, EDEM3 / RFU, TMEM33 / Fold change vs veh, TMEM33 / RFU, WDR75 / Fold change vs veh, WDR75 / RFU, AHCTF1 / Fold change vs veh, AHCTF1 / RFU, TFRC / Fold change vs veh, TFRC / RFU, ZDHHC17 / Fold change vs veh, ZDHHC17 / RFU, NOM1 / Fold change vs veh, NOM1 / RFU, ARL8B / Fold change vs veh, ARL8B / RFU, ZBTB11 / Fold change vs veh, ZBTB11 / RFU, TAMM41 / Fold change vs veh, TAMM41 / RFU, KIAA1704 /// LOC100996395 / Fold change vs veh, KIAA1704 /// LOC100996395 / RFU, ING1 / Fold change vs veh, ING1 / RFU, TRMT61B / Fold change vs veh, TRMT61B / RFU, FUBP3 / Fold change vs veh, FUBP3 / RFU, TP53 / Fold change vs veh, TP53 / RFU, TNKS2 / Fold change vs veh, TNKS2 / RFU, ZFP14 / Fold change vs veh, ZFP14 / RFU, ACTR2 / Fold change vs veh, ACTR2 / RFU, PPP3R1 / Fold change vs veh, PPP3R1 / RFU, PIK3R1 / Fold change vs veh, PIK3R1 / RFU, HNRNPA1 / Fold change vs veh, HNRNPA1 / RFU, RNF170 / Fold change vs veh, RNF170 / RFU, ZNF28 / Fold change vs veh, ZNF28 / RFU, RNGTT / Fold change vs veh, RNGTT / RFU, OGT / Fold change vs veh, OGT / RFU, BRD1 / Fold change vs veh, BRD1 / RFU, MARS / Fold change vs veh, MARS / RFU, ZNF655 / Fold change vs veh, ZNF655 / RFU, FAHD1 / Fold change vs veh, FAHD1 / RFU, BDP1 / Fold change vs veh, BDP1 / RFU, LRRCC1 / Fold change vs veh, LRRCC1 / RFU, ARID1A / Fold change vs veh, ARID1A / RFU, ZNF146 / Fold change vs veh, ZNF146 / RFU, ZNF330 / Fold change vs veh, ZNF330 / RFU, GPN3 / Fold change vs veh, GPN3 / RFU, C9orf123 / Fold change vs veh, C9orf123 / RFU, N4BP2L2 / Fold change vs veh, N4BP2L2 / RFU, ARFIP1 / Fold change vs veh, ARFIP1 / RFU, FAM179B / Fold change vs veh, FAM179B / RFU, BCL10 / Fold change vs veh, BCL10 / RFU, UHRF1BP1L / Fold change vs veh, UHRF1BP1L / RFU, BET1 / Fold change vs veh, BET1 / RFU, CNOT2 / Fold change vs veh, CNOT2 / RFU, ZNF268 / Fold change vs veh, ZNF268 / Fold change vs veh, ZNF507 / RFU, DGCR2 / Fold change vs veh, DGCR2 / RFU, WDSUB1 / Fold change vs veh, WDSUB1 / Fold change vs veh, HSP90B1 /// MIR3652 / RFU, ADSS / Fold change vs veh, ADSS / RFU, GK / Fold change vs veh, GK / RFU, ZNF148 / Fold change vs veh, ZNF148 / RFU, TAF9 / Fold change vs veh, TAF9 / RFU, SLC1A5 / Fold change vs veh, SLC1A5 / RFU, SLMO2 / Fold change vs veh, SLMO2 / RFU, ABCC4 / Fold change vs veh, ABCC4 / RFU, LOC101060439 /// RAP1B / Fold change vs veh, LOC101060439 /// RAP1B / RFU, RFX7 / Fold change vs veh, RFX7 / RFU, GTPBP10 / Fold change vs veh, GTPBP10 / RFU, CNEP1R1 / Fold change vs veh, CNEP1R1 / RFU, BIVM-ERCC5 /// ERCC5 / Fold change vs veh, BIVM-ERCC5 /// ERCC5 / RFU, ILF3 / Fold change vs veh, ILF3 / RFU 11762660_at / Fold change /veh 11762660_at / RFU VCAN (11757783_s_at) / Fold change /veh VCAN (11757783_s_at) / RFU DDX43 (11728927_at) / Fold change /veh DDX43 (11728927_at) / RFU KRT8 (11758188_x_at) / Fold change /veh KRT8 (11758188_x_at) / RFU NKD1 (11759106_at) / Fold change /veh NKD1 (11759106_at) / RFU SRD5A1 (11742802_a_at) / Fold change /veh SRD5A1 (11742802_a_at) / RFU TPSAB1 /// TPSB2 (11721975_s_at) / Fold change /veh TPSAB1 /// TPSB2 (11721975_s_at) / RFU GSTM3 (11746129_a_at) / Fold change /veh GSTM3 (11746129_a_at) / RFU IL23R (11737362_x_at) / Fold change /veh IL23R (11737362_x_at) / RFU TMEM51 (11727254_a_at) / Fold change /veh TMEM51 (11727254_a_at) / RFU PIWIL2 (11732686_x_at) / Fold change /veh PIWIL2 (11732686_x_at) / RFU ORM1 (11744905_x_at) / Fold change /veh ORM1 (11744905_x_at) / RFU CCDC152 (11743942_at) / Fold change /veh CCDC152 (11743942_at) / RFU ECM1 (11717891_a_at) / Fold change /veh ECM1 (11717891_a_at) / RFU IL23R (11748794_a_at) / Fold change /veh IL23R (11748794_a_at) / RFU TNFAIP8L3 (11732012_x_at) / Fold change /veh TNFAIP8L3 (11732012_x_at) / RFU MBOAT4 (11741988_at) / Fold change /veh MBOAT4 (11741988_at) / RFU 11764193_at / Fold change /veh 11764193_at / RFU TMEM53 (11763286_at) / Fold change /veh TMEM53 (11763286_at) / RFU MAGEB2 (11727129_at) / Fold change /veh MAGEB2 (11727129_at) / RFU TMEM200A (11744735_a_at) / Fold change /veh TMEM200A (11744735_a_at) / RFU CCDC152 (11751479_a_at) / Fold change /veh CCDC152 (11751479_a_at) / RFU FAM211A (11726209_a_at) / Fold change /veh FAM211A (11726209_a_at) / RFU RGS16 (11746705_a_at) / Fold change /veh RGS16 (11746705_a_at) / RFU VCAN (11755009_s_at) / Fold change /veh VCAN (11755009_s_at) / RFU RHOB (11743442_s_at) / Fold change /veh RHOB (11743442_s_at) / RFU RGS16 (11720943_a_at) / Fold change /veh RGS16 (11720943_a_at) / RFU RGS16 (11720944_at) / Fold change /veh RGS16 (11720944_at) / RFU, VPS4B / Fold change vs veh, VPS4B / RFU, CREB1 / Fold change vs veh, CREB1 / RFU, DNAJC13 / Fold change vs veh, DNAJC13 / RFU, GNAQ / Fold change vs veh, GNAQ / RFU, CDK5R1 / Fold change vs veh, CDK5R1 / RFU, ZRANB3 / Fold change vs veh, ZRANB3 / RFU, CUL4A / Fold change vs veh, CUL4A / RFU, CCNY / Fold change vs veh, CCNY / RFU, UFL1 / Fold change vs veh, UFL1 / RFU, COG3 / Fold change vs veh, COG3 / RFU, DIAPH2 / Fold change vs veh, DIAPH2 / RFU, SKA2 / Fold change vs veh, SKA2 / RFU, AFF3 / Fold change vs veh, AFF3 / RFU, LMF1 / Fold change vs veh, LMF1 / RFU, IPO11 / Fold change vs veh, IPO11 / RFU, DFFB / Fold change vs veh, DFFB / RFU, FOXP1 / Fold change vs veh, FOXP1 / RFU, CARD8 / Fold change vs veh, CARD8 / RFU, STRN3 / Fold change vs veh, STRN3 / RFU, ADK / Fold change vs veh, ADK / RFU, RASSF2 / Fold change vs veh, RASSF2 / RFU, WIPF1 / Fold change vs veh, WIPF1 / RFU, LARP1B / Fold change vs veh, LARP1B / RFU, RASA1 / Fold change vs veh, RASA1 / RFU, RB1 / Fold change vs veh, RB1 / RFU, PPFIA1 / Fold change vs veh, PPFIA1 / RFU, MAT2A / Fold change vs veh, MAT2A / RFU, CCT5 / Fold change vs veh, CCT5 / RFU, WDR92 / Fold change vs veh, WDR92 / RFU, CUX1 / Fold change vs veh, CUX1 / RFU, TTC7A / Fold change vs veh, TTC7A / RFU, TMEM135 / Fold change vs veh, TMEM135 / RFU, DEPTOR / Fold change vs veh, DEPTOR / RFU, CPM / Fold change vs veh, CPM / RFU, DNAJB6 / Fold change vs veh, DNAJB6 / RFU, CACNA2D3 / Fold change vs veh, CACNA2D3 / RFU, DTX4 / Fold change vs veh, DTX4 / RFU, TFCP2 / Fold change vs veh, TFCP2 / RFU, GMCL1 /// GMCL1P1 / Fold change vs veh, GMCL1 /// GMCL1P1 / RFU, AEBP2 / Fold change vs veh, AEBP2 / RFU, SNHG1 /// SNORD22 /// SNORD25 /// SNORD26 /// SNORD27 /// SNORD28 /// SNORD29 /// SNORD31 / Fold change vs veh, SNHG1 /// SNORD22 /// SNORD25 /// SNORD26 /// SNORD27 /// SNORD28 /// SNORD29 /// SNORD31 / Fold change (Aza/veh), C12orf56 (ProbeSet 11735607_a_at) / Fold change (ACY-1035/veh), C12orf56 (ProbeSet 11735607_a_at) / Fold change (Aza/veh), FGFR1OP (ProbeSet 11751329_s_at) / Fold change (ACY-1035/veh), FGFR1OP (ProbeSet 11751329_s_at) / Fold change (Aza/veh), VPS36 (ProbeSet 11739960_a_at) / Fold change (ACY-1035/veh), VPS36 (ProbeSet 11739960_a_at) / RFU SYPL1 (11715823_x_at) / Fold change /veh SYPL1 (11715823_x_at) / RFU IGFBP7 (11715501_s_at) / Fold change /veh IGFBP7 (11715501_s_at) / RFU REEP3 (11722064_at) / Fold change /veh REEP3 (11722064_at) / RFU IGLL1 (11728026_x_at) / Fold change /veh IGLL1 (11728026_x_at): dose or concentration left out as unconfirmed", "settings": "MV-4-11 cells, 48 hours", "data": [{"smiles": "Nc1ncn([C@@H]2O[C@H](CO)[C@@H](O)[C@H]2O)c(=O)n1", "note": "[azacitidine]", "values": [{"measurement": "Fold change /veh ARHGAP8 /// PRR5-ARHGAP8 (11727945_x_at)", "value": 0.99}]}]}
